Usually IC50 stands for the midpoint of a concentration-inhibition curve. Low values mean greater potency, high ones weaker potency.

What all share (assay type): cell-based
The test system of one test is A431 cells. Put plainly: Cellular proliferation (Alamar Blue) assay, A431 cells. The following applies: Homo sapiens, A-431, 72 hr incubation. As to the method: (§1) Example 2: Cellular Proliferation (Alamar Blue) Assays
(§2) • 1. EGFR(D770_N771insSVD) expressing Ba/F3 stable cell line • 2. EGFR (A767_dupASV) expressing Ba/F3 stable cell line • 3. A431 cells • 4. EGFR (H773insNPH) expressing Ba/F3 stable cell line • 5. HER2 (A775_G775insYVMA) expressing Ba/F3 stable cell line
(§3) • 1. Seed cells at 5000 for A431 and 15,000 cells for Ba/F3 in 100 μL/well in complete media (for A431: DMEM with 10% FBS and for Ba/F3 cells: RPMI with 10% FBS) in • 96-well tissue culture plate. Leave outer wells without cells for background measurements. Incubate at 37 degree Celsius in 5% C02 humidified incubator for 16-18 hours. • 2. Add 0.025 ml of 5× concentration compound dilution or DMSO control. Final compound concentration range is 10-0.0005 μM prepared in 3-fold serial dilutions. Incubate for 72 hr at 37 degree Celsius in 5% CO2 humidified incubator. • 3. Add 0.0125 ml Alamar Blue™ reagent to each well with multi-channel pipette and tap gently on each side of the plate to mix. Incubate for 3 hours at 37 degree Celsius in 5% CO2 humidified incubator. • 4. Read plates on fluorescence reader (Tecan Spark Control, Device: Spark, Serial #: 1801006040) at 540 nm excitation, 590 nm emission wavelength. • 5. Data analysis was performed using XLfit 5.5.0.5.
(Alamar Blue is a resazurin reagent that responds to reducing activity.)

Test [1] deals with EGFR (A767_dupASV) expressing Ba/F3 stable cell line (Homo sapiens, UniProt P00533, DUP767-769, cells depend on it). Put plainly: Cellular proliferation (Alamar Blue) assay, EGFR (A767_dupASV) Ba/F3. The following applies: 72 hr incubation, read-out: A767 IC50. Here is the method:
as §1, §2, §3

Test [2] concerns the target EGFR (H773insNPH) expressing Ba/F3 stable cell line (Homo sapiens, UniProt P00533, DUP771-773, cells depend on it). Put plainly: Cellular proliferation (Alamar Blue) assay, EGFR (H773insNPH) Ba/F3. The following applies: 72 hr incubation, read-out: NPH IC50. As to the method:
as §1, §2, §3

The target of test [3] is EGFR(D770_N771insSVD) expressing Ba/F3 stable cell line (Homo sapiens, UniProt P00533, DUP768-770, cells depend on it). Put plainly: Cellular proliferation (Alamar Blue) assay, EGFR(D770_N771insSVD) Ba/F3. To be noted: 72 hr incubation, read-out: D770 IC50. Here is the method:
as §1, §2, §3

The target in test [4] is HER2 (A775_G775insYVMA) expressing Ba/F3 stable cell line (Homo sapiens, UniProt P04626, DUP772-775, cells depend on it). Put plainly: Cellular proliferation (Alamar Blue) assay, HER2 (A775_G775insYVMA) Ba/F3. The following applies: 72 hr incubation, read-out: YVMA IC50. As to the method:
as §1, §2, §3

Structures are written as SMILES.

EGFR (H773insNPH) expressing Ba/F3 stable cell line, sequence (P00533 with tags, fused parts or gaps DUP771-773): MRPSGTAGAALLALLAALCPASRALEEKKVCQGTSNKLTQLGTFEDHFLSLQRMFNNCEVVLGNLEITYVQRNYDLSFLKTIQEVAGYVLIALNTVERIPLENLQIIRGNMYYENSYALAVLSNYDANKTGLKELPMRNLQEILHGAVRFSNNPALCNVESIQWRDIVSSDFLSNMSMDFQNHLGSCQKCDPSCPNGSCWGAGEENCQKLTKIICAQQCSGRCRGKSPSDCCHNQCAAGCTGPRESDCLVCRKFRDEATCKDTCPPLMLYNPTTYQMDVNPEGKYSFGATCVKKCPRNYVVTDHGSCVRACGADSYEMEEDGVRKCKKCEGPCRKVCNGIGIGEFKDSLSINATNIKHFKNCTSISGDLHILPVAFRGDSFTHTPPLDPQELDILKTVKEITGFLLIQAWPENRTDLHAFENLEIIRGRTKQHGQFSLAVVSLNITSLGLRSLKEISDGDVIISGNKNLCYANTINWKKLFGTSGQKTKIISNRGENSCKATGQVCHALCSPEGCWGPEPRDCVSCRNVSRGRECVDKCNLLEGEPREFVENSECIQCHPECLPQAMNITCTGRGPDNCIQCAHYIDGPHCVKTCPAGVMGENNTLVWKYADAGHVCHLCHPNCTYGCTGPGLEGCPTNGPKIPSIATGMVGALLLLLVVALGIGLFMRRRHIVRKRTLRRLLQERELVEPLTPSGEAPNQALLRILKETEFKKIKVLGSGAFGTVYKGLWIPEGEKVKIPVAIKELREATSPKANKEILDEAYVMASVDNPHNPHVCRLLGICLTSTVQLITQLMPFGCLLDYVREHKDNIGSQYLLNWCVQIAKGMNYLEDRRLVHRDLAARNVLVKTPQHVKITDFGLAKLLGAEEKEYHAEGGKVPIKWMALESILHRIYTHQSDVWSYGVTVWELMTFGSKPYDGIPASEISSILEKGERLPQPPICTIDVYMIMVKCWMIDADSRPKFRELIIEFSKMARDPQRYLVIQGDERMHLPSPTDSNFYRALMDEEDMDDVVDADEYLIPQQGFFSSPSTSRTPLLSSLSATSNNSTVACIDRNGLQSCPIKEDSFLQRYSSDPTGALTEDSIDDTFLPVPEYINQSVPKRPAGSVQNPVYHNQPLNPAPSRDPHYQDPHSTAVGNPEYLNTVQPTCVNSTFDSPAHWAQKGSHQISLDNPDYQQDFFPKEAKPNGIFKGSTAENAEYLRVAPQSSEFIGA
HER2 (A775_G775insYVMA) expressing Ba/F3 stable cell line, sequence (P04626 with tags, fused parts or gaps DUP772-775): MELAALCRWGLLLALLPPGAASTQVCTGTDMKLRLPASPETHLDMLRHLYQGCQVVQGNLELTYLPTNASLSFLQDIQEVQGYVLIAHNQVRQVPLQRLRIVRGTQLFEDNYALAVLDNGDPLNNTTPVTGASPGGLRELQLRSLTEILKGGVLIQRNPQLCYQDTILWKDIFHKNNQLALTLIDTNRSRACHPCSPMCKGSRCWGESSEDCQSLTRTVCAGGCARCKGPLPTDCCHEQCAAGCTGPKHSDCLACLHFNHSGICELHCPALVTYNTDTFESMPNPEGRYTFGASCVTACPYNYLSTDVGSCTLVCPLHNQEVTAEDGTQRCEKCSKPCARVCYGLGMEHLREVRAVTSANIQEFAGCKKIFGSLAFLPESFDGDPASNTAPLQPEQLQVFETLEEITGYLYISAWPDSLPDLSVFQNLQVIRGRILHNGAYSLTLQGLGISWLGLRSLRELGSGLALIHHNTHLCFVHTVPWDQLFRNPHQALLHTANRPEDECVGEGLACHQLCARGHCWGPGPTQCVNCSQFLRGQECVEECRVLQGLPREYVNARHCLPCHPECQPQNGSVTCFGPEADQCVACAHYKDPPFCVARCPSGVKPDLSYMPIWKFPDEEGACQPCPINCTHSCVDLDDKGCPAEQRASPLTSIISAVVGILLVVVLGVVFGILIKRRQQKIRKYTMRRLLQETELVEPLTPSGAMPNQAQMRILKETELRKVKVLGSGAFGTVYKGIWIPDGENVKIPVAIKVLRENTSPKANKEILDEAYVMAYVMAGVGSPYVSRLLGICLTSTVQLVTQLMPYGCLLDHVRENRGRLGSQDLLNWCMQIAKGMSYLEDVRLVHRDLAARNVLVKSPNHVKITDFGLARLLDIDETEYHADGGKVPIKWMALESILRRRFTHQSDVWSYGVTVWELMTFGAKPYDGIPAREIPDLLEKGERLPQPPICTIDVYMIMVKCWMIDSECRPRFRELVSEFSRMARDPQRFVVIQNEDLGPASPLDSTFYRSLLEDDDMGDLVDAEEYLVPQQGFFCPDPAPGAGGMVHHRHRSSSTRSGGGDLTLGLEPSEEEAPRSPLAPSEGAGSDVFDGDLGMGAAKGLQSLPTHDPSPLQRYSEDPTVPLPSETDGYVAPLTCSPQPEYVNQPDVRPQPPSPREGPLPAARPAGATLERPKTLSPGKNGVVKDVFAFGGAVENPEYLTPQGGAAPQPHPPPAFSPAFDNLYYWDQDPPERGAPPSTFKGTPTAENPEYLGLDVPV
EGFR (A767_dupASV) expressing Ba/F3 stable cell line, sequence (P00533 with tags, fused parts or gaps DUP767-769): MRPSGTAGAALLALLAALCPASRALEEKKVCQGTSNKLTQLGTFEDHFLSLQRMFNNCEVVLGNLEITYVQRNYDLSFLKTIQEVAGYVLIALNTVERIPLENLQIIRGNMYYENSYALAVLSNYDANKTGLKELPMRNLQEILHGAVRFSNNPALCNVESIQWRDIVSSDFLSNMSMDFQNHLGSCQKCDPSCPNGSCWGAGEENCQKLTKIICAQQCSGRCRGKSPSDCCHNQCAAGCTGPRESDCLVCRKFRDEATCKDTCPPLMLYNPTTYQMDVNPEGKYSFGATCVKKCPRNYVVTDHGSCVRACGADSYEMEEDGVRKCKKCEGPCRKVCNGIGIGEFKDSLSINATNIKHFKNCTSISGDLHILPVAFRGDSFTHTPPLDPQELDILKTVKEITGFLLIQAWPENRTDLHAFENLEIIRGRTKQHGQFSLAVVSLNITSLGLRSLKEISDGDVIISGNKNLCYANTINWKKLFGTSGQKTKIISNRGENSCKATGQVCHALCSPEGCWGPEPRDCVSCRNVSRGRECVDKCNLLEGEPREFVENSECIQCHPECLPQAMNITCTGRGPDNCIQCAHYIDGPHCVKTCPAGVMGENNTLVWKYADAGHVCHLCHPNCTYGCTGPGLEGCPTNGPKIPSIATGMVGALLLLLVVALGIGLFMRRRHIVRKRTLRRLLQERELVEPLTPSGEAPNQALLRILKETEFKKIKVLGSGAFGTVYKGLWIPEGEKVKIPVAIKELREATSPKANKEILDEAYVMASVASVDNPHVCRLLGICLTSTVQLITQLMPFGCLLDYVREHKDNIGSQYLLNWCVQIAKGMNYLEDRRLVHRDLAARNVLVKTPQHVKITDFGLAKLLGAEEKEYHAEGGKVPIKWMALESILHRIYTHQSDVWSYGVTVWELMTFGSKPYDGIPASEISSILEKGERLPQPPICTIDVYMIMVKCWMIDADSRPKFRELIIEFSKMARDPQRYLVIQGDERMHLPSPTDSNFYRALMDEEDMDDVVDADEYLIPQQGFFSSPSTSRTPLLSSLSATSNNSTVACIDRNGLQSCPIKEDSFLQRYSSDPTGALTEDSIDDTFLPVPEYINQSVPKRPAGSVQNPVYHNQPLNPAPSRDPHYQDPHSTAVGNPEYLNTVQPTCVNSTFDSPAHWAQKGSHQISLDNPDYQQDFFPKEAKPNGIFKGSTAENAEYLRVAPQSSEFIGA
EGFR(D770_N771insSVD) expressing Ba/F3 stable cell line, sequence (P00533 with tags, fused parts or gaps DUP768-770): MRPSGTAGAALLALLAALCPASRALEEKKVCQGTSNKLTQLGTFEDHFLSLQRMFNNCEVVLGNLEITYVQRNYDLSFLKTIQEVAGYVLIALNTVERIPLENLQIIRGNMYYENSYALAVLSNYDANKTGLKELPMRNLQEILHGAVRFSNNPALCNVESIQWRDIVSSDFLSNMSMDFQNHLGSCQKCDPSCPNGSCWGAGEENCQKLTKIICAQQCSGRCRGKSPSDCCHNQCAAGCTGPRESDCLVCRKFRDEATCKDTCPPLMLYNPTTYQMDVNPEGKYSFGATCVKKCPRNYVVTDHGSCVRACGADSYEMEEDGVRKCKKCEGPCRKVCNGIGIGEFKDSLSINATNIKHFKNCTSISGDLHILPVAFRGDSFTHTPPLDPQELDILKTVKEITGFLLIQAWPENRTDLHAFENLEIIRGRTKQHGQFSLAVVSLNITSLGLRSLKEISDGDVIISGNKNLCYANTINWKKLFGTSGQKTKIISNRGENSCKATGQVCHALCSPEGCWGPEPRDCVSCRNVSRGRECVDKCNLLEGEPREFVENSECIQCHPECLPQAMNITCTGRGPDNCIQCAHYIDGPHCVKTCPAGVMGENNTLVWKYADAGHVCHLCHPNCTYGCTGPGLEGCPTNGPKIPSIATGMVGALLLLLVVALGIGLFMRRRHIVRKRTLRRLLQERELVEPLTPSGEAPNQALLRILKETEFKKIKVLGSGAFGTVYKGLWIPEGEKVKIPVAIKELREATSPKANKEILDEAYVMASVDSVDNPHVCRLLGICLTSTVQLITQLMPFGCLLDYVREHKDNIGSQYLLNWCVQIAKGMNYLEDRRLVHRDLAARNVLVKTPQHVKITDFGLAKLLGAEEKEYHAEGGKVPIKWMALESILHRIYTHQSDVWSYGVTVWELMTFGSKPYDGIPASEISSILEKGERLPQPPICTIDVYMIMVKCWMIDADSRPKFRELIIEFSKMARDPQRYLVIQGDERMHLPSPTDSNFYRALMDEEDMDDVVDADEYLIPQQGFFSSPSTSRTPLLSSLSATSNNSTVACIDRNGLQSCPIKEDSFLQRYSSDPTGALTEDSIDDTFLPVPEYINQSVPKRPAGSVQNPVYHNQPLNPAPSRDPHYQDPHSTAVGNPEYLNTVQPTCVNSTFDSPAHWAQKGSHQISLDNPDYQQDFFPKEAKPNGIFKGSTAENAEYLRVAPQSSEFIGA

In the test with A431 cells, `CN(C)C/C=C/C(=O)Nc1cccc(N2C(=O)N(Cc3ccccc3)CCc3cnc(Nc4cn(C)nc4Cl)nc32)c1` [Compound 1, (E)-N-(3-(7-benzyl-2-((3-chloro-1-methyl-1H-pyrazol-4-yl)amino)-8-oxo-5,6,7,8-tetrahydro-9H-pyrimido[4,5-d][1,3]diazepin-9-yl)phenyl)-4-(dimethylamino)but-2-enamide] registered an IC50 of 132 nM. The GI50 in test [1] amounted to 54 nM; in test [2], 86 nM; in test [3], 105 nM; in test [4], 31 nM.
For `Cn1cc(Nc2ncc3c(n2)N(c2cccc(NC(=O)/C=C/CN4CCCCC4)c2)C(=O)N(Cc2ccccc2)CC3)c(Cl)n1` [Compound 3, (E)-N-(3-(7-benzyl-2-((3-chloro-1-methyl-1H-pyrazol-4-yl)amino)-8-oxo-5,6,7,8-tetrahydro-9H-pyrimido[4,5-d][1,3]diazepin-9-yl)phenyl)-4-(piperidin-1-yl)but-2-enamide] the same measures were greater than 10000 nM, 42 nM, 108 nM, 48 nM and 31 nM.
In the test with A431 cells, `COC/C=C/C(=O)Nc1cccc(N2C(=O)N(Cc3ccccc3)CCc3cnc(Nc4cn(C)nc4Cl)nc32)c1` [Compound 4, (E)-N-(3-(7-benzyl-2-((3-chloro-1-methyl-1H-pyrazol-4-yl)amino)-8-oxo-5,6,7,8-tetrahydro-9H-pyrimido[4,5-d][1,3]diazepin-9-yl)phenyl)-4-methoxybut-2-enamide] registered an IC50 greater than 10000 nM. The GI50 in test [1] came out at 104 nM; in test [2] it was 103 nM; in test [3], 98 nM; in test [4], 125 nM.
Compound `C=CC(=O)Nc1cccc(N2C(=O)N(Cc3ccccc3)CCc3cnc(Nc4cn(C)nc4Cl)nc32)c1` [Compound 5, N-(3-(7-benzyl-2-((3-chloro-1-methyl-1H-pyrazol-4-yl)amino)-8-oxo-5,6,7,8-tetrahydro-9H-pyrimido[4,5-d][1,3]diazepin-9-yl)phenyl)acrylamide] returned an IC50 with A431 cells of 2 nM. For the same compound, the GI50 in test [1] was determined as 12 nM; in test [2] it was 7 nM; in test [3], 10 nM; in test [4], 12 nM.
For the compound `Cn1cc(Nc2ncc3c(n2)N(c2cccc(NC(=O)/C=C/CF)c2)C(=O)N(Cc2ccccc2)CC3)c(Cl)n1` [Compound 6, (E)-N-(3-(7-benzyl-2-((3-chloro-1-methyl-1H-pyrazol-4-yl)amino)-8-oxo-5,6,7,8-tetrahydro-9H-pyrimido[4,5-d][1,3]diazepin-9-yl)phenyl)-4-fluorobut-2-enamide], the IC50 with A431 cells was determined as 8 nM. Besides, the GI50 came out at 9 nM in test [1], 32 nM in test [2], 12 nM in test [3] and 10 nM in test [4].
`C=CC(=O)Nc1cccc(N2C(=O)N(Cc3ccccc3)CCc3cnc(Nc4cn(C5CCN(C)CC5)nc4Cl)nc32)c1` [Compound 7, N-(3-(7-benzyl-2-((3-chloro-1-(1-methylpiperidin-4-yl)-1H-pyrazol-4-yl)amino)-8-oxo-5,6,7,8-tetrahydro-9H-pyrimido[4,5-d][1,3]diazepin-9-yl)phenyl)acrylamide] returned an IC50 in the test with A431 cells of 2 nM. The GI50 in test [1] came to 27 nM; in test [2], 41 nM; in test [3], 36 nM; in test [4], 24 nM.
On to `C=CC(=O)Nc1cccc(N2C(=O)N(Cc3ccccc3)CCc3cnc(Nc4ccc(F)c(C)c4)nc32)c1` [Compound 9, N-(3-(7-benzyl-2-((4-fluoro-3-methylphenyl)amino)-8-oxo-5,6,7,8-tetrahydro-9H-pyrimido[4,5-d][1,3]diazepin-9-yl)phenyl)acrylamide], for which, in the test with A431 cells, the midpoint of inhibition, the IC50, lay at 35 nM. Also, the GI50 in test [1] stood at 46 nM; in test [2], 95 nM; in test [3], 45 nM; in test [4], 28 nM.
The compound `Cn1cc(Nc2ncc3c(n2)N(c2cccc(NC(=O)/C=C/CN4CCOCC4)c2)C(=O)N(Cc2ccccc2)CC3)c(Cl)n1` [Compound 10, (E)-N-(3-(7-benzyl-2-((3-chloro-1-methyl-1H-pyrazol-4-yl)amino)-8-oxo-5,6,7,8-tetrahydro-9H-pyrimido[4,5-d][1,3]diazepin-9-yl)phenyl)-4-morpholinobut-2-enamide] returned an IC50 in the test on A431 cells of 8 nM. The GI50 in test [1] came to 43 nM; in test [2] it was 94 nM; in test [3] it was 47 nM; in test [4], 20 nM.
For `C=CC(=O)Nc1cccc(N2C(=O)N(Cc3ccccc3)CCc3cnc(Nc4cn(C)nc4F)nc32)c1` [Compound 11, N-(3-(7-benzyl-2-((3-fluoro-1-methyl-1H-pyrazol-4-yl)amino)-8-oxo-5,6,7,8-tetrahydro-9H-pyrimido[4,5-d][1,3]diazepin-9-yl)phenyl)acrylamide] the same measures were 5 nM, 11 nM, 31 nM, 10 nM and 7 nM.
In the test on A431 cells, `C=CC(=O)Nc1cccc(N2C(=O)N(Cc3ccccc3)CCc3cnc(Nc4ccc(N5CCN(C)CC5)cc4OC)nc32)c1` [Compound 14, N-(3-(7-benzyl-2-((2-methoxy-4-(4-methylpiperazin-1-yl)phenyl)amino)-8-oxo-5,6,7,8-tetrahydro-9H-pyrimido[4,5-d][1,3]diazepin-9-yl)phenyl)acrylamide] gave an IC50 of 34 nM. Also, the GI50 stood at 33 nM in test [1], 32 nM in test [2], 38 nM in test [3] and 15 nM in test [4].
In the test with A431 cells, `C=CC(=O)Nc1cccc(N2C(=O)N(Cc3ccccc3)CCc3cnc(Nc4ccc(N5CCN(C)CC5)nc4)nc32)c1` [Compound 16, N-(3-(7-benzyl-2-((6-(4-methylpiperazin-1-yl)pyridin-3-yl)amino)-8-oxo-5,6,7,8-tetrahydro-9H-pyrimido[4,5-d][1,3]diazepin-9-yl)phenyl)acrylamide] had an IC50 of 9 nM. Further, the GI50 in test [1] turned out to be 25 nM; in test [2] it was 32 nM; in test [3], 39 nM; in test [4], 25 nM.
Regarding `Cn1cc(Nc2ncc3c(n2)N(c2cccc(NC(=O)/C=C/CN4CCOCC4)c2)C(=O)N(c2ccccc2)CC3)c(Cl)n1` [Compound 32, (E)-N-(3-(2-((3-chloro-1-methyl-1H-pyrazol-4-yl)amino)-8-oxo-7-phenyl-5,6,7,8-tetrahydro-9H-pyrimido[4,5-d][1,3]diazepin-9-yl)phenyl)-4-morpholinobut-2-enamide], the IC50 in the test with A431 cells is greater than 10000 nM. The GI50 in test [1] is 1160 nM; in test [3] it was 1360 nM; in test [4], 3280 nM.
For `Cn1cc(Nc2ncc3c(n2)N(c2cccc(NC(=O)/C=C/CN4CCCCC4)c2)C(=O)N(c2ccccc2)CC3)c(Cl)n1` [Compound 40, (E)-N-(3-(2-((3-chloro-1-methyl-1H-pyrazol-4-yl)amino)-8-oxo-7-phenyl-5,6,7,8-tetrahydro-9H-pyrimido[4,5-d][1,3]diazepin-9-yl)phenyl)-4-(piperidin-1-yl)but-2-enamide] the same measures were greater than 10000 nM, 325 nM, 406 nM and 536 nM.
For `CN(C)C/C=C/C(=O)Nc1cccc(N2C(=O)N(c3ccccc3)CCc3cnc(Nc4cccnc4F)nc32)c1` [Compound 44, (E)-4-(dimethylamino)-N-(3-(2-((2-fluoropyridin-3-yl)amino)-8-oxo-7-phenyl-5,6,7,8-tetrahydro-9H-pyrimido[4,5-d][1,3]diazepin-9-yl)phenyl)but-2-enamide] the same measures were greater than 10000 nM, 936 nM, 1140 nM and 1230 nM.
For `COC/C=C/C(=O)Nc1cccc(N2C(=O)N(c3ccccc3)CCc3cnc(Nc4cn(C)nc4Cl)nc32)c1` [Compound 46, (E)-N-(3-(2-((3-chloro-1-methyl-1H-pyrazol-4-yl)amino)-8-oxo-7-phenyl-5,6,7,8-tetrahydro-9H-pyrimido[4,5-d][1,3]diazepin-9-yl)phenyl)-4-methoxybut-2-enamide] the same measures were greater than 10000 nM, 1130 nM, 2770 nM and 5950 nM.

The values are drawn from patent US20240217977A1, “DIAZEPANONE-FUSED PYRIMIDINE COMPOUNDS, COMPOSITIONS AND MEDICINAL APPLICATIONS THEREOF” (Blueprint Medicines Corporation, priority 2021, published 2024).
